“And” between values parts separate entries of the source, which are not always exact repeats. Identical values can stand only once.
Key:
[1] = biological target: AChE (Electrophorus electricus) (Electrophorus electricus, UniProt O42275); experiment: biochemical; settings: for IC50: AChE from Electrophorus electricus, average from three independent experiments, ^c = IC50 greater than 0.5 mg/mL
[2] = biological target: T1, butyrylcholinesterase (BuChE) from equine serum (Equus caballus, UniProt P81908); experiment: BuChE inhibition, Ellman method, 96-well plates; assay type: biochemical; settings: average from three independent experiments, ^c = IC50 greater than 0.5 mg/mL
T1 construct: an AChE/BuChE solution (50 μL, 0.25 unit/mL) from Electroporus electricus and equine serum, respectively; from tissue; host or cells: equine serum
T1 sequence (P81908 whole entry): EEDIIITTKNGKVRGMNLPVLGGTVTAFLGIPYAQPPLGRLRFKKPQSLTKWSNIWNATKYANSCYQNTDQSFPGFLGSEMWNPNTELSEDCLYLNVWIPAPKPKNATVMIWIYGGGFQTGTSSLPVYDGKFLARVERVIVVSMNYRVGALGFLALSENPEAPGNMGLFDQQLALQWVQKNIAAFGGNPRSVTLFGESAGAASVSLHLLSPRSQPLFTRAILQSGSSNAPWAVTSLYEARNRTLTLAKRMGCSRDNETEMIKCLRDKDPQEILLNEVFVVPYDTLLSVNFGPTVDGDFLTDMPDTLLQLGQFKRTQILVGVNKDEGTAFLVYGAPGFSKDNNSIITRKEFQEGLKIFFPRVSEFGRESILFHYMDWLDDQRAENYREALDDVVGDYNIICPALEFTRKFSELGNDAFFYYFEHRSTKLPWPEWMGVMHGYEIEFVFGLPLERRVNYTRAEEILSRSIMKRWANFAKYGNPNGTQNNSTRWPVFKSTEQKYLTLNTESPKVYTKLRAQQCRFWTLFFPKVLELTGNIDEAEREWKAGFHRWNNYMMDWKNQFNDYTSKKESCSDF

[3] = biological target: AChE (Electrophorus electricus, UniProt O42275); experiment: Kinetic characterization of AChE inhibition (Lineweaver-Burk, Ellman's method); assay type: biochemical; settings: substrate acetylthiocholine; for type of AChE inhibition: Lineweaver-Burk plots, AChE 0.02U; for Vmax: in presence of inhibitor, nonlinear regression
Chain of AChE (O42275 24-633): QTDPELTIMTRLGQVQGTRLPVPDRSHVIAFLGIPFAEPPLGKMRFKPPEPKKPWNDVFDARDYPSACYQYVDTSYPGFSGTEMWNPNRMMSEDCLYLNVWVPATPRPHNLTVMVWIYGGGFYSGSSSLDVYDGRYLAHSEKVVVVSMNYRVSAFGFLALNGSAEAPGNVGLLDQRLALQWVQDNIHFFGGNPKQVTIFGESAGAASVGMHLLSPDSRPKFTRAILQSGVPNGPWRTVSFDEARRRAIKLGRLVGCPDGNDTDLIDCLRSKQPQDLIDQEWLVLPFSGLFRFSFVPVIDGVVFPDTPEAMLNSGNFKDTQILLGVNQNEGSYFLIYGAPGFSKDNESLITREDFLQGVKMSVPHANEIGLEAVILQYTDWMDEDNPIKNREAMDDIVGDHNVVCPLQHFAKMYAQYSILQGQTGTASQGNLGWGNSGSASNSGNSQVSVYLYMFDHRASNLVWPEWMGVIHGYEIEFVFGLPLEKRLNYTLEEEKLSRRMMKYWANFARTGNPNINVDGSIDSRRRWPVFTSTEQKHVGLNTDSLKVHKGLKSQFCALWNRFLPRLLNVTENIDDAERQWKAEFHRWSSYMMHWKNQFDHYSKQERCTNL
Experimental: The kinetics of this new class of AChE inhibitors were studied in detail using compounds 7f and 7g as examples. The nature of AChE inhibition, caused by these two compounds, was investigated by the graphical analysis of steady-state inhibition data (Figure 2A,B). […] The values of Km and Vmax were calculated by nonlinear regression according to studies by Abell et al., where Vmax was maintained at the same value while Km value was increased.
Figure 2 Lineweaver-Burk plot of AChE (0.02U) with substrate acetylthiocholine, in the absence and presence of inhibitors 7g (A), 7f (B).
Kinetic characterization of AChE was performed by means of Ellman’s method. […]. Enzyme kinetic characterization studies were performed under same incubation conditions as described above using acetylthiocholine as substrate and DTNB was used as chromophoric reagent. A parallel control with no inhibitor in the mixture was used for comparison. Each concentration was analyzed in triplicate; and Lineweaver-Burk (1/V vs. 1/[S]) plot was constructed using Sigma Plot 10.0 version software.

Chain of AChE (Electrophorus electricus) (O42275 24-633): as above

Row | Compound | IC50 [1] | IC50 [2] | type of AChE inhibition [3] | Vmax [3] | Selectivity for AChE (selectivity index) ([1]; defined as IC50 (BuChE)/IC50 (AChE))
1 | Cc1cc(/C=C(\C#N)c2nc3ccccc3s2)no1 [7a, (E)-2-(Benzo[d]thiazol-2-yl)-3-(5-methylisoxazol-3-yl)acrylonitrile] | 1274 ± 0.7 µM | > 1870 µM |  |  | 
2 | N#C/C(=C\c1cc(-c2ccccc2)on1)c1nc2ccccc2s1 [7b, (E)-2-(Benzo[d]thiazol-2-yl)-3-(5-phenylisoxazol-3-yl)acrylonitrile] | 1179 ± 0.5 µM | 1396.6 ± 0.8 µM |  |  | 
3 | N#C/C(=C\c1cc(-c2ccc(F)cc2)on1)c1nc2ccccc2s1 [7c, (E)-2-(Benzo[d]thiazol-2-yl)-3-[5-(4-fluorophenyl)isoxazol-3-yl]acrylonitrile] | 699 ± 0.3 µM | > 1440 µM |  |  | 
4 | N#C/C(=C\c1ccc(N2CCOCC2)cc1)c1nc2ccccc2s1 [7d, (E)-2-(Benzo[d]thiazol-2-yl)-3-(4-morpholin-4-ylphenyl)acrylonitrile] | 504 ± 1 µM | > 1440 µM |  |  | 
5 | N#C/C(=C\c1ncc[nH]1)c1nc2ccccc2s1 [7e, (E)-2-(Benzo[d]thiazol-2-yl)-3-(1H-imidazol-2-yl)acrylonitrile] | 303 ± 0.8 µM | > 1980 µM |  |  | 
6 | N#C/C(=C\c1cccnc1)c1nc2ccccc2s1 [7f, (E)-2-(Benzo[d]thiazol-2-yl)-3-(pyridin-3-yl)acrylonitrile] | 155 µM and 103 µM | > 2290 µM | competitive inhibitors | 0.07078 | 
7 | N#C/C(=C\c1ccc(-c2ccc(Cl)cc2)o1)c1nc2ccccc2s1 [7g, (E)-2-(Benzo[d]thiazol-2-yl)-3-[5-(4-chlorophenyl)furan-2-yl]acrylonitrile] | 64 ± 0.6 µM | 474 µM | competitive inhibitors | 0.2236 | 7.40
8 | Cc1nn(-c2ccccc2)c(Cl)c1/C=C(\C#N)c1nc2ccccc2s1 [7h, (E)-2-(Benzo[d]thiazol-2-yl)-3-(5-chloro-3-methyl-1-phenyl-1H-pyrazol-4-yl)acrylonitrile] | > 1330 µM | > 1330 µM |  |  | 
9 | N#C/C(=C\c1ccco1)c1nc2ccccc2s1 [7i, (E)-2-(Benzo[d]thiazol-2-yl)-3-(2-furyl)acrylonitrile] | > 1980 µM | 1883 ± 0.8 µM |  |  | 
10 | N#C/C(=C\c1ccc(-c2ccccc2)cc1)c1nc2ccccc2s1 [7j, (E)-2-(Benzo[d]thiazol-2-yl)-3-(1,1'-biphenyl-4-yl)acrylonitrile] | > 1480 µM | 1273 ± 0.7 µM |  |  | 
11 | N#C/C(=C\c1ccccn1)c1nc2ccccc2s1 [7k, (E)-2-(Benzo[d]thiazol-2-yl)-3-(pyridin-2-yl)acrylonitrile] | > 1900 µM | > 1900 µM |  |  | 

Reference: article PMC6269038, “A Novel Class of Selective Acetylcholinesterase Inhibitors: Synthesis and Evaluation of (E)-2-(Benzo[d]thiazol-2-yl)-3-heteroarylacrylonitriles” (Molecules, 2012)
